Results taken from patent US20240059689A1, “PURINE DERIVATIVES AS ANTICANCER AGENTS” (Tango Therapeutics, Inc., priority 2021, published 2024).

What was measured:
USP1-UAF1 = USP1-UAF1 (Homo sapiens, UniProt O94782); experiment: Ubiquitin Rhodamine assay of USP1-UAF1 activity; type: biochemical
Protocol: Certain compounds of the disclosure were assessed for USP1-UAF1 activity in a Ubiquitin Rhodamine assay as described in Biology Example 1.

MDA-MB-436 = experiment: Viability assay, BRCA1 mutant cell line MDA-MB-436; type: cell-based; details: Homo sapiens, MDA-MB-436, viability, BRCA1 mutant MDA-MB-436; read-out: MDA-MB-436 rel IC50
Text: (§1) Table 1 also indicates IC50 values in a viability assay for a non-isogenic pair of BRCA1 mutant (column 5-MDA-MB-436) and BRCA1 WT (column 6—HCC1954) cell lines. These values indicate the effect of treatment with compound on cell survival.

HCC1954 = experiment: Viability assay, BRCA1 WT cell line HCC1954; type: cell-based; details: Homo sapiens, HCC1954, viability, read-out: HCC1954 rel IC50
Text: as §1

monoubiquitinated PCNA = experiment: AlphaLISA assay measuring monoubiquitinated PCNA in MDA-MB-436; type: cell-based; details: Homo sapiens, MDA-MB-436, monoubiquitinated PCNA, read-out: Alpha Lisa IC50
Text: Table 1 also indicates IC50 values for exemplary compounds in an AlphaLISA assay measuring monoubiquitinated PCNA in a BRCA1 mutant cell line (MDA-MB-436; column 7).

USP1-UAF1, sequence (O94782 whole entry): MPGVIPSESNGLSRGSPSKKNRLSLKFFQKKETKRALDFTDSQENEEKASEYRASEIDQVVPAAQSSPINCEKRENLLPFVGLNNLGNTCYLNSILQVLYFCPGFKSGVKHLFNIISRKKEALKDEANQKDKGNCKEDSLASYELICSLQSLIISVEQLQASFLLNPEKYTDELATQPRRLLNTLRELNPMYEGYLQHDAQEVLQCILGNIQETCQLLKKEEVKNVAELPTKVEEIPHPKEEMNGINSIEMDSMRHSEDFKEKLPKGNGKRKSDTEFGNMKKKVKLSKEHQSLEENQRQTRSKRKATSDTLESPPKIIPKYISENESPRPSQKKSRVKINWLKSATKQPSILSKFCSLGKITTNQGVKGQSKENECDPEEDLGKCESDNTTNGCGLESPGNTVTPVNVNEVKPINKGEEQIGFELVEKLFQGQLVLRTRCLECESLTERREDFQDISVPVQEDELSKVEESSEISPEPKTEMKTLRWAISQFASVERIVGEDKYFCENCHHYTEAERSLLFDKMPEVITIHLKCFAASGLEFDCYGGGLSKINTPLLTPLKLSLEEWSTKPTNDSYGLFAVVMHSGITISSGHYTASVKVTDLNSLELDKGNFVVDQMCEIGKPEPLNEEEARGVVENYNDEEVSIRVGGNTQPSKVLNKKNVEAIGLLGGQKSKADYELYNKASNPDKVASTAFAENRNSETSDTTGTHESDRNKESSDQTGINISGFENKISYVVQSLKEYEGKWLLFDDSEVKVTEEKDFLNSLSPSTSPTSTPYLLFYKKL
USP1-UAF1, sequence (Q8TAF3 whole entry partner): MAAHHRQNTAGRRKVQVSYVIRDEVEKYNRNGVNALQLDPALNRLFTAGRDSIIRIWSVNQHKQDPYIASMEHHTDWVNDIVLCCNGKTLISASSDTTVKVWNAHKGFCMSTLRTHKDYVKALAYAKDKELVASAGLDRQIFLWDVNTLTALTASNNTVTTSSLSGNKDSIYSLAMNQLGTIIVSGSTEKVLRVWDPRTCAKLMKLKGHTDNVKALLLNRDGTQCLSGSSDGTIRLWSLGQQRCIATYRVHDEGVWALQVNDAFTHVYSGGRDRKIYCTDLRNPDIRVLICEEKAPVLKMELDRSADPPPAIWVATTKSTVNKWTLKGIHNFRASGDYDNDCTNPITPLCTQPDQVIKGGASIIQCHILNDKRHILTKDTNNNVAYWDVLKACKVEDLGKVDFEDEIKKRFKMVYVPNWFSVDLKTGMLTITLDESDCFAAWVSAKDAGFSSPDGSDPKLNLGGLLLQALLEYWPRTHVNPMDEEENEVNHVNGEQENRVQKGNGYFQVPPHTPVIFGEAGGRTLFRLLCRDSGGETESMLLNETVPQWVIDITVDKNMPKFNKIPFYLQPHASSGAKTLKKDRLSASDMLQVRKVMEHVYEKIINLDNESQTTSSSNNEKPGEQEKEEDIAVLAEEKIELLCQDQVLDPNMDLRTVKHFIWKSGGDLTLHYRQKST

IC50 (USP1-UAF1) | IC50 (MDA-MB-436) | IC50 (HCC1954) | IC50 (monoubiquitinated PCNA) | SMILES
< 30 nM | < 100 nM | 250 to 10000 nM | < 100 nM | C=C(C)c1c(F)cccc1-c1nc(C)c2c(n1)n(Cc1ccc(-c3nc(Cl)cn3C)cc1)c(=N)n2C [Example A-30, 9-(4-(4-chloro-1-methyl-1H-imidazol-2-yl)benzyl)-2-(3-fluoro-2-(prop-1-en-2-yl)phenyl)-6,7-dimethyl-7,9-dihydro-8H-purin-8-imine]
30 to 100 nM | 100 to 250 nM | 250 to 10000 nM | < 100 nM | CC(C)c1cc(C#N)ccc1-c1ncc2c(n1)n(Cc1ccc(-c3nc(C(F)(F)F)cn3C)cc1)c(=N)n2C [Example T-071, 4-[8-imino-7-methyl-9-[[4-[1-methyl-4-(trifluoromethyl)imidazol-2-yl]phenyl]methyl]purin-2-yl]-3-isopropyl-benzonitrile]
< 30 nM | < 100 nM | ≥ 10000 nM | < 100 nM | Cn1cc(C(F)(F)F)nc1-c1ccc(Cn2c(=N)n(C)c3cnc(-c4c(F)cccc4OC(F)F)nc32)cc1 [Example T-036, 2-[2-(difluoromethoxy)-6-fluoro-phenyl]-7-methyl-9-[[4-[1-methyl-4-(trifluoromethyl)imidazol-2-yl]phenyl]methyl]purin-8-imine]
30 to 100 nM | 250 to 10000 nM | ≥ 10000 nM | 100 to 250 nM | CC(C)c1ncccc1-c1ncc2c(n1)n(Cc1ccc(-c3nc(C(F)(F)F)cn3C)cc1)c(=N)n2C [Example T-076, 2-(2-isopropyl-3-pyridyl)-7-methyl-9-[[4-[1-methyl-4-(trifluoromethyl)imidazol-2-yl]phenyl]methyl]purin-8-imine]
30 to 100 nM | < 100 nM | ≥ 10000 nM | < 100 nM | Cc1cc(-c2nc(C(F)(F)F)cn2C)ccc1Cn1c(=N)n(C)c2cnc(-c3ccccc3C(C)C)nc21 [Example T-040]
30 to 100 nM | < 100 nM | ≥ 10000 nM | < 100 nM | COc1ncnc(C2CC2)c1-c1ncc2c(n1)n([C@H](C)c1ccc(-c3nc(C(F)(F)F)cn3C)cc1)c(=N)n2C [Example T-131, 2-(4-cyclopropyl-6-methoxy-pyrimidin-5-yl)-7-methyl-9-[(1R)-1-[4-[1-methyl-4-(trifluoromethyl)imidazol-2-yl]phenyl]ethyl]purin-8-imine]
100 to 10000 nM | 250 to 10000 nM | 250 to 10000 nM | 250 to 10000 nM | Cn1cc(C(F)(F)F)nc1-c1ccc(Cn2c(=N)n(C)c3cnc(-c4ccccc4)nc32)cc1 [Example B-3, 7-methyl-9-(4-(1-methyl-4-(trifluoromethyl)-1H-imidazol-2-yl)benzyl)-2-phenyl-7,9-dihydro-8H-purin-8-imine]
100 to 10000 nM | 250 to 10000 nM | ≥ 10000 nM | 250 to 10000 nM | Cn1cc(C(F)(F)F)nc1-c1ccc(Cn2c(=N)n(C)c3cnc(-c4cccnc4N4CC(F)C4)nc32)cc1 [Example T-023]
100 to 10000 nM | 100 to 250 nM | ≥ 10000 nM | 250 to 10000 nM | CNc1nc(OC)c(-c2ncc3c(n2)n(Cc2ccc(-c4nc(C(F)(F)F)cn4C)cc2)c(=N)n3C)c(C2CC2)n1 [Example T-122, 4-cyclopropyl-5-[8-imino-7-methyl-9-[[4-[1-methyl-4-(trifluoromethyl)imidazol-2-yl]phenyl]methyl]purin-2-yl]-6-methoxy-N-methyl-pyrimidin-2-amine]
100 to 10000 nM | 100 to 250 nM | ≥ 10000 nM | 100 to 250 nM | COc1nccc(C2CC2)c1-c1ncc2c(n1)n(Cc1ccc(-c3nc(C(F)(F)F)cn3C)cc1)c(=N)n2CC(F)(F)F [Example T-141, 2-(4-cyclopropyl-2-methoxy-3-pyridyl)-9-[[4-[1-methyl-4-(trifluoromethyl)imidazol-2-yl]phenyl]methyl]-7-(2,2,2-trifluoroethyl)purin-8-imine]
100 to 10000 nM | 250 to 10000 nM | ≥ 10000 nM | 250 to 10000 nM | COc1ncccc1-c1ncc2c(n1)n(Cc1ccc(-c3nc(C(F)(F)F)cn3CCF)cc1)c(=N)n2C [Example T-093]
